# Source: ChEMBL document CHEMBL1201861, “Genomics of Drug Sensitity in Cancer screening data, Wellcome Trust Sanger Institute”
# Test system: HAL-01;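 further: growth inhibition of human HAL-01 cells, read out with a cell viability assay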
# Assay: cells
# Assay type: functional, cell-based, Homo sapiens
# Details: Homo sapiens, HAL-01
row,Compound,IC50
1,Nc1cccc2c1CN(C1CCC(=O)NC1=O)C2=O (configuration not stated) [LENALIDOMIDE],> 5 µM

# Test system: BE-13;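 further: growth inhibition of human BE-13 cells, measured with a cell viability assay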
# Assay: cells
# Assay type: functional, cell-based, Homo sapiens
# Details: Homo sapiens, BE-13
# Description: SANGER: Inhibition of human BE-13 cell growth in a cell viability assay.
row,Compound,IC50
1,Nc1cccc2c1CN(C1CCC(=O)NC1=O)C2=O (configuration not stated) [LENALIDOMIDE],> 5 µM

# Test system: NCI-H1299;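 further: growth inhibition of human NCI-H1299 cells, read out by a cell viability assay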
# Assay: cells
# Assay type: functional, cell-based, Homo sapiens
# Details: Homo sapiens, NCI-H1299
# Description: SANGER: Inhibition of human NCI-H1299 cell growth in a cell viability assay.
row,Compound,IC50
1,Nc1cccc2c1CN(C1CCC(=O)NC1=O)C2=O (configuration not stated) [LENALIDOMIDE],> 5 µM

# Test system: L-428
# Assay: cells
# Assay type: functional, cell-based, Homo sapiens
# Details: Homo sapiens, L-428
# Description: SANGER: Inhibition of human L-428 cell growth in a cell viability assay.
row,Compound,IC50
1,Nc1cccc2c1CN(C1CCC(=O)NC1=O)C2=O (configuration not stated) [LENALIDOMIDE],> 5 µM

# Test system: A3-KAW;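 further: growth inhibition of human A3-KAW cells, read out with a cell viability assay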
# Assay: cells
# Assay type: functional, cell-based, Homo sapiens
# Details: Homo sapiens, A3-KAW
# Description: SANGER: Inhibition of human A3-KAW cell growth in a cell viability assay.
row,Compound,IC50
1,Nc1cccc2c1CN(C1CCC(=O)NC1=O)C2=O (configuration not stated) [LENALIDOMIDE],> 5 µM

# Test system: A704;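 further: growth inhibition of human A704 cells, read out with a cell viability assay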
# Assay: cells
# Assay type: functional, cell-based, Homo sapiens
# Details: Homo sapiens, A704
# Description: SANGER: Inhibition of human A704 cell growth in a cell viability assay.
row,Compound,IC50
1,Nc1cccc2c1CN(C1CCC(=O)NC1=O)C2=O (configuration not stated) [LENALIDOMIDE],> 5 µM

# Test system: BB30-HNC;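 further: growth inhibition of the cultured cell line, read out by a cell viability assay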
# Assay: cells
# Assay type: functional, cell-based, Homo sapiens
# Details: Homo sapiens, BB30-HNC
# Description: SANGER: Inhibition of human BB30-HNC cell growth in a cell viability assay.
row,Compound,IC50
1,Nc1cccc2c1CN(C1CCC(=O)NC1=O)C2=O (configuration not stated) [LENALIDOMIDE],> 5 µM

# Test system: COLO-824
# Assay: cells
# Assay type: functional, cell-based, Homo sapiens
# Details: Homo sapiens, COLO-824
# Description: SANGER: Inhibition of human COLO-824 cell growth in a cell viability assay.
row,Compound,IC50
1,Nc1cccc2c1CN(C1CCC(=O)NC1=O)C2=O (configuration not stated) [LENALIDOMIDE],> 5 µM

# Test system: NCI-H1650;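 further: growth inhibition of human NCI-H1650 cells measured by a cell viability assay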
# Assay: cells
# Assay type: functional, cell-based, Homo sapiens
# Details: Homo sapiens, NCI-H1650
# Description: SANGER: Inhibition of human NCI-H1650 cell growth in a cell viability assay.
row,Compound,IC50
1,Nc1cccc2c1CN(C1CCC(=O)NC1=O)C2=O (configuration not stated) [LENALIDOMIDE],> 5 µM

# Test system: GCIY;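 further: growth inhibition of the human GCIY cell line, read out by a cell viability assay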
# Assay: cells
# Assay type: functional, cell-based, Homo sapiens
# Details: Homo sapiens, GCIY
# Description: SANGER: Inhibition of human GCIY cell growth in a cell viability assay.
row,Compound,IC50
1,Nc1cccc2c1CN(C1CCC(=O)NC1=O)C2=O (configuration not stated) [LENALIDOMIDE],> 5 µM

# Test system: IA-LM;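 further: cell viability assay measuring growth inhibition of human IA-LM cells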
# Assay: cells
# Assay type: functional, cell-based, Homo sapiens
# Details: Homo sapiens, IA-LM
# Description: SANGER: Inhibition of human IA-LM cell growth in a cell viability assay.
row,Compound,IC50
1,Nc1cccc2c1CN(C1CCC(=O)NC1=O)C2=O (configuration not stated) [LENALIDOMIDE],> 5 µM

# Test system: NCI-H82;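 further: growth inhibition of NCI-H82 cells, measured with a cell viability readout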
# Assay: cells
# Assay type: functional, cell-based, Homo sapiens
# Details: Homo sapiens, NCI-H82
# Description: SANGER: Inhibition of human NCI-H82 cell growth in a cell viability assay.
row,Compound,IC50
1,Nc1cccc2c1CN(C1CCC(=O)NC1=O)C2=O (configuration not stated) [LENALIDOMIDE],> 5 µM

# Test system: LS-1034
# Assay: cells
# Assay type: functional, cell-based, Homo sapiens
# Details: Homo sapiens, LS-1034
# Description: SANGER: Inhibition of human LS-1034 cell growth in a cell viability assay.
row,Compound,IC50
1,Nc1cccc2c1CN(C1CCC(=O)NC1=O)C2=O (configuration not stated) [LENALIDOMIDE],> 5 µM

# Test system: TE-11;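 further: growth inhibition of human TE-11 cells, read out by a cell viability assay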
# Assay: cells
# Assay type: functional, cell-based, Homo sapiens
# Details: Homo sapiens, TE-11
# Description: SANGER: Inhibition of human TE-11 cell growth in a cell viability assay.
row,Compound,IC50
1,Nc1cccc2c1CN(C1CCC(=O)NC1=O)C2=O (configuration not stated) [LENALIDOMIDE],> 5 µM

# Test system: OCUB-M;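 further: growth inhibition of the cancer cell line, read out through a cell viability assay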
# Assay: cells
# Assay type: functional, cell-based, Homo sapiens
# Details: Homo sapiens, OCUB-M
# Description: SANGER: Inhibition of human OCUB-M cell growth in a cell viability assay.
row,Compound,IC50
1,Nc1cccc2c1CN(C1CCC(=O)NC1=O)C2=O (configuration not stated) [LENALIDOMIDE],> 5 µM

# Test system: GR-ST
# Assay: cells
# Assay type: functional, cell-based, Homo sapiens
# Details: Homo sapiens, GR-ST
# Description: SANGER: Inhibition of human GR-ST cell growth in a cell viability assay.
row,Compound,IC50
1,Nc1cccc2c1CN(C1CCC(=O)NC1=O)C2=O (configuration not stated) [LENALIDOMIDE],> 5 µM

# Test system: BB65-RCC;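 further: growth inhibition of the cell line, measured with a cell viability assay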
# Assay: cells
# Assay type: functional, cell-based, Homo sapiens
# Details: Homo sapiens, BB65-RCC
# Description: SANGER: Inhibition of human BB65-RCC cell growth in a cell viability assay.
row,Compound,IC50
1,Nc1cccc2c1CN(C1CCC(=O)NC1=O)C2=O (configuration not stated) [LENALIDOMIDE],> 5 µM

# Test system: NCI-H1395;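 further: cell viability assay read-out quantifying reduced proliferation of human NCI-H1395 cells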
# Assay: cells
# Assay type: functional, cell-based, Homo sapiens
# Details: Homo sapiens, NCI-H1395
# Description: SANGER: Inhibition of human NCI-H1395 cell growth in a cell viability assay.
row,Compound,IC50
1,Nc1cccc2c1CN(C1CCC(=O)NC1=O)C2=O (configuration not stated) [LENALIDOMIDE],> 5 µM

# Test system: MFH-ino;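 further: growth inhibition of human MFH-ino cells, read out by a cell viability assay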
# Assay: cells
# Assay type: functional, cell-based, Homo sapiens
# Details: Homo sapiens, MFH-ino
# Description: SANGER: Inhibition of human MFH-ino cell growth in a cell viability assay.
row,Compound,IC50
1,Nc1cccc2c1CN(C1CCC(=O)NC1=O)C2=O (configuration not stated) [LENALIDOMIDE],> 5 µM

# Test system: L-363
# Assay: cells
# Assay type: functional, cell-based, Homo sapiens
# Details: Homo sapiens, L-363
# Description: SANGER: Inhibition of human L-363 cell growth in a cell viability assay.
row,Compound,IC50
1,Nc1cccc2c1CN(C1CCC(=O)NC1=O)C2=O (configuration not stated) [LENALIDOMIDE],2.92 µM

# Test system: MPP-89;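 further: growth inhibition of human MPP-89 cells, read out with a cell viability assay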
# Assay: cells
# Assay type: functional, cell-based, Homo sapiens
# Details: Homo sapiens, MPP-89
# Description: SANGER: Inhibition of human MPP-89 cell growth in a cell viability assay.
row,Compound,IC50
1,Nc1cccc2c1CN(C1CCC(=O)NC1=O)C2=O (configuration not stated) [LENALIDOMIDE],> 5 µM

# Test system: GOTO;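 further: growth inhibition of GOTO cells, read out by a cell viability assay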
# Assay: cells
# Assay type: functional, cell-based, Homo sapiens
# Details: Homo sapiens, GOTO
# Description: SANGER: Inhibition of human GOTO cell growth in a cell viability assay.
row,Compound,IC50
1,Nc1cccc2c1CN(C1CCC(=O)NC1=O)C2=O (configuration not stated) [LENALIDOMIDE],> 5 µM

# Test system: EW-24;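 further: human EW-24 cancer cell line, growth inhibition read out via a cell viability assay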
# Assay: cells
# Assay type: functional, cell-based, Homo sapiens
# Details: Homo sapiens, EW-24
# Description: SANGER: Inhibition of human EW-24 cell growth in a cell viability assay.
row,Compound,IC50
1,Nc1cccc2c1CN(C1CCC(=O)NC1=O)C2=O (configuration not stated) [LENALIDOMIDE],> 5 µM

# Test system: TE-5;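 further: inhibition of cell growth, read out by a cell viability assay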
# Assay: cells
# Assay type: functional, cell-based, Homo sapiens
# Details: Homo sapiens, TE-5
# Description: SANGER: Inhibition of human TE-5 cell growth in a cell viability assay.
row,Compound,IC50
1,Nc1cccc2c1CN(C1CCC(=O)NC1=O)C2=O (configuration not stated) [LENALIDOMIDE],> 5 µM

# Test system: SW 962;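 further: growth inhibition of human SW962 cells, read out by a cell viability assay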
# Assay: cells
# Assay type: functional, cell-based, Homo sapiens
# Details: Homo sapiens, SW 962
# Description: SANGER: Inhibition of human SW962 cell growth in a cell viability assay.
row,Compound,IC50
1,Nc1cccc2c1CN(C1CCC(=O)NC1=O)C2=O (configuration not stated) [LENALIDOMIDE],> 5 µM

# Test system: NOMO-1;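 further: growth inhibition of human NOMO-1 cells measured by a cell viability assay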
# Assay: cells
# Assay type: functional, cell-based, Homo sapiens
# Details: Homo sapiens, NOMO-1
# Description: SANGER: Inhibition of human NOMO-1 cell growth in a cell viability assay.
row,Compound,IC50
1,Nc1cccc2c1CN(C1CCC(=O)NC1=O)C2=O (configuration not stated) [LENALIDOMIDE],> 5 µM

# Test system: SK-MEL-1;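 further: growth inhibition of human SK-MEL-1 cells, read out by a cell viability assay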
# Assay: cells
# Assay type: functional, cell-based, Homo sapiens
# Details: Homo sapiens, SK-MEL-1
# Description: SANGER: Inhibition of human SK-MEL-1 cell growth in a cell viability assay.
row,Compound,IC50
1,Nc1cccc2c1CN(C1CCC(=O)NC1=O)C2=O (configuration not stated) [LENALIDOMIDE],> 5 µM

# Test system: 8-MG-BA;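 further: growth inhibition of 8-MG-BA cells, read out with a cell viability assay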
# Assay: cells
# Assay type: functional, cell-based, Homo sapiens
# Details: Homo sapiens, 8-MG-BA
# Description: SANGER: Inhibition of human 8-MG-BA cell growth in a cell viability assay.
row,Compound,IC50
1,Nc1cccc2c1CN(C1CCC(=O)NC1=O)C2=O (configuration not stated) [LENALIDOMIDE],> 5 µM

# Test system: NCI-H747;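 further: growth inhibition of human NCI-H747 cells, read out by a cell viability assay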
# Assay: cells
# Assay type: functional, cell-based, Homo sapiens
# Details: Homo sapiens, NCI-H747
# Description: SANGER: Inhibition of human NCI-H747 cell growth in a cell viability assay.
row,Compound,IC50
1,Nc1cccc2c1CN(C1CCC(=O)NC1=O)C2=O (configuration not stated) [LENALIDOMIDE],> 5 µM

# Test system: A101D;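 further: growth inhibition of the cell line, measured with a viability assay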
# Assay: cells
# Assay type: functional, cell-based, Homo sapiens
# Details: Homo sapiens, A101D
# Description: SANGER: Inhibition of human A101D cell growth in a cell viability assay.
row,Compound,IC50
1,Nc1cccc2c1CN(C1CCC(=O)NC1=O)C2=O (configuration not stated) [LENALIDOMIDE],> 5 µM

# Test system: SK-N-FI;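 further: cell viability assay measuring growth inhibition of human SK-N-FI cells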
# Assay: cells
# Assay type: functional, cell-based, Homo sapiens
# Details: Homo sapiens, SK-N-FI
# Description: SANGER: Inhibition of human SK-N-FI cell growth in a cell viability assay.
row,Compound,IC50
1,Nc1cccc2c1CN(C1CCC(=O)NC1=O)C2=O (configuration not stated) [LENALIDOMIDE],> 5 µM

# Test system: MSTO-211H
# Assay: cells
# Assay type: functional, cell-based, Homo sapiens
# Details: Homo sapiens, MSTO-211H
# Description: SANGER: Inhibition of human MSTO-211H cell growth in a cell viability assay.
row,Compound,IC50
1,Nc1cccc2c1CN(C1CCC(=O)NC1=O)C2=O (configuration not stated) [LENALIDOMIDE],> 5 µM

# Test system: HC-1;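 further: growth inhibition of HC-1 cells measured by a cell viability assay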
# Assay: cells
# Assay type: functional, cell-based, Homo sapiens
# Details: Homo sapiens, HC-1
# Description: SANGER: Inhibition of human HC-1 cell growth in a cell viability assay.
row,Compound,IC50
1,Nc1cccc2c1CN(C1CCC(=O)NC1=O)C2=O (configuration not stated) [LENALIDOMIDE],> 5 µM

# Test system: NB12;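 further: growth inhibition of human NB12 cells, read out by a cell viability assay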
# Assay: cells
# Assay type: functional, cell-based, Homo sapiens
# Details: Homo sapiens, NB12
# Description: SANGER: Inhibition of human NB12 cell growth in a cell viability assay.
row,Compound,IC50
1,Nc1cccc2c1CN(C1CCC(=O)NC1=O)C2=O (configuration not stated) [LENALIDOMIDE],> 5 µM

# Test system: KP-N-YS;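 further: cell viability assay measuring inhibition of cell line growth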
# Assay: cells
# Assay type: functional, cell-based, Homo sapiens
# Details: Homo sapiens, KP-N-YS
# Description: SANGER: Inhibition of human KP-N-YS cell growth in a cell viability assay.
row,Compound,IC50
1,Nc1cccc2c1CN(C1CCC(=O)NC1=O)C2=O (configuration not stated) [LENALIDOMIDE],> 5 µM

# Test system: J-RT3-T3-5;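 further: cell viability assay measuring growth inhibition of human J-RT3-T3-5 cells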
# Assay: cells
# Assay type: functional, cell-based, Homo sapiens
# Details: Homo sapiens, J-RT3-T3-5
# Description: SANGER: Inhibition of human J-RT3-T3-5 cell growth in a cell viability assay.
row,Compound,IC50
1,Nc1cccc2c1CN(C1CCC(=O)NC1=O)C2=O (configuration not stated) [LENALIDOMIDE],> 5 µM

# Test system: D283 Med
# Assay: cells
# Assay type: functional, cell-based, Homo sapiens
# Details: Homo sapiens, D283 Med
# Description: SANGER: Inhibition of human D-283MED cell growth in a cell viability assay.
row,Compound,IC50
1,Nc1cccc2c1CN(C1CCC(=O)NC1=O)C2=O (configuration not stated) [LENALIDOMIDE],> 5 µM

# Test system: IST-MEL1;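 further: growth inhibition of the cell line, read out with a cell viability assay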
# Assay: cells
# Assay type: functional, cell-based, Homo sapiens
# Details: Homo sapiens, IST-MEL1
# Description: SANGER: Inhibition of human IST-MEL1 cell growth in a cell viability assay.
row,Compound,IC50
1,Nc1cccc2c1CN(C1CCC(=O)NC1=O)C2=O (configuration not stated) [LENALIDOMIDE],> 5 µM

# Test system: MOLT-16;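 further: growth inhibition of human MOLT-16 cells, read out with a cell viability assay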
# Assay: cells
# Assay type: functional, cell-based, Homo sapiens
# Details: Homo sapiens, MOLT-16
# Description: SANGER: Inhibition of human MOLT-16 cell growth in a cell viability assay.
row,Compound,IC50
1,Nc1cccc2c1CN(C1CCC(=O)NC1=O)C2=O (configuration not stated) [LENALIDOMIDE],> 5 µM

# Test system: NB6;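 further: growth inhibition of NB6 cells, read out by a cell viability assay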
# Assay: cells
# Assay type: functional, cell-based, Homo sapiens
# Details: Homo sapiens, NB6
# Description: SANGER: Inhibition of human NB6 cell growth in a cell viability assay.
row,Compound,IC50
1,Nc1cccc2c1CN(C1CCC(=O)NC1=O)C2=O (configuration not stated) [LENALIDOMIDE],> 5 µM

# Test system: ES6;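 further: growth inhibition of human ES6 cells, read out with a cell viability assay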
# Assay: cells
# Assay type: functional, cell-based, Homo sapiens
# Details: Homo sapiens, ES6
# Description: SANGER: Inhibition of human ES6 cell growth in a cell viability assay.
row,Compound,IC50
1,Nc1cccc2c1CN(C1CCC(=O)NC1=O)C2=O (configuration not stated) [LENALIDOMIDE],> 5 µM

# Test system: ES4;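 further: growth inhibition of human ES4 cells, read out by a cell viability assay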
# Assay: cells
# Assay type: functional, cell-based, Homo sapiens
# Details: Homo sapiens, ES4
# Description: SANGER: Inhibition of human ES4 cell growth in a cell viability assay.
row,Compound,IC50
1,Nc1cccc2c1CN(C1CCC(=O)NC1=O)C2=O (configuration not stated) [LENALIDOMIDE],> 5 µM

# Test system: CGTH-W-1;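 further: growth inhibition of human CGTH-W-1 cells measured by cell viability assay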
# Assay: cells
# Assay type: functional, cell-based, Homo sapiens
# Details: Homo sapiens, CGTH-W-1
# Description: SANGER: Inhibition of human CGTH-W-1 cell growth in a cell viability assay.
row,Compound,IC50
1,Nc1cccc2c1CN(C1CCC(=O)NC1=O)C2=O (configuration not stated) [LENALIDOMIDE],> 5 µM

# Test system: NCI-H720;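 further: growth inhibition of human NCI-H720 cells determined by a cell viability assay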
# Assay: cells
# Assay type: functional, cell-based, Homo sapiens
# Details: Homo sapiens, NCI-H720
# Description: SANGER: Inhibition of human NCI-H720 cell growth in a cell viability assay.
row,Compound,IC50
1,Nc1cccc2c1CN(C1CCC(=O)NC1=O)C2=O (configuration not stated) [LENALIDOMIDE],> 5 µM

# Test system: SF-268;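 further: growth inhibition of SF-268 cells determined with a cell viability assay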
# Assay: cells
# Assay type: functional, cell-based, Homo sapiens
# Details: Homo sapiens, SF-268
# Description: SANGER: Inhibition of human SF268 cell growth in a cell viability assay.
row,Compound,IC50
1,Nc1cccc2c1CN(C1CCC(=O)NC1=O)C2=O (configuration not stated) [LENALIDOMIDE],> 5 µM

# Test system: OVCAR-4;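 further: growth inhibition of human OVCAR-4 cells, measured with a cell viability assay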
# Assay: cells
# Assay type: functional, cell-based, Homo sapiens
# Details: Homo sapiens, OVCAR-4
# Description: SANGER: Inhibition of human OVCAR-4 cell growth in a cell viability assay.
row,Compound,IC50
1,Nc1cccc2c1CN(C1CCC(=O)NC1=O)C2=O (configuration not stated) [LENALIDOMIDE],> 5 µM

# Test system: NEC8;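 further: growth inhibition of human NEC8 cells, read out by a cell viability assay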
# Assay: cells
# Assay type: functional, cell-based, Homo sapiens
# Details: Homo sapiens, NEC8
# Description: SANGER: Inhibition of human NEC8 cell growth in a cell viability assay.
row,Compound,IC50
1,Nc1cccc2c1CN(C1CCC(=O)NC1=O)C2=O (configuration not stated) [LENALIDOMIDE],> 5 µM
